Results as given in US11384063B2, “Modulators of estrogen receptor proteolysis and associated methods of use” (Arvinas Operations, Inc., priority 2017, dated 2022).

Assays:
ERα [1] = biological target: T1, ERα (Homo sapiens, UniProt P03372); experiment: Estrogen receptor-alpha (ERα) degradation assay in MCF-7 cells using western blot; format: cell-based; set-up: assessed for their activity in degrading ERα in MCF-7 cells via western blot; endogenous in cells; host or cells: MCF7 cells; details: ER-alpha degradation, MCF7 cells, 3 days of incubation
T1 sequence (P03372 1-595): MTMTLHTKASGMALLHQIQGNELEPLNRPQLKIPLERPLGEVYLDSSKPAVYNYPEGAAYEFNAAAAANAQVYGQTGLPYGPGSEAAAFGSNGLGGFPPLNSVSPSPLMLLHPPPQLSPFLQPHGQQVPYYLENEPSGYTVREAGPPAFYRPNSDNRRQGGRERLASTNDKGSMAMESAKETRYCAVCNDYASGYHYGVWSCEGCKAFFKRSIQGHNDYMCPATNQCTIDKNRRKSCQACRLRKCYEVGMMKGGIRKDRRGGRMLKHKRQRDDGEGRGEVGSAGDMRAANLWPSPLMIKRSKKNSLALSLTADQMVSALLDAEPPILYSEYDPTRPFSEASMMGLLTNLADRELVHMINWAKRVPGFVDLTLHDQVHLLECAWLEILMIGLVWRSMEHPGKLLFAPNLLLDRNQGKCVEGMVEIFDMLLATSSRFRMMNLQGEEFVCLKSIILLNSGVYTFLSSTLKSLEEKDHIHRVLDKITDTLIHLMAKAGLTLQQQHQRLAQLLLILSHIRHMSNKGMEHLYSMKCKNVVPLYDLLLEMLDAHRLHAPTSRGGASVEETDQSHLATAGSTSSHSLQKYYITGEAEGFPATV
Method: Compounds prepared in this application were also analyzed for the degradation of ERα in MCF7 and T47D cells.
Estrogen Receptor-Alpha (ERα) Degradation Assay in MCF-7 Cells Using Western Blot Method for Table 4.
The exemplary novel ERα degraders were assessed for their activity in degrading ERα in MCF-7 cells via western blot. The assay was carried out in the presence of 10% fetal bovine serum (FBS) or high percentage of human or mouse serum.
MCF7 cells were grown in DMEM/F12 with 10% fetal bovine serum and seeded at 24,000 cells per well in 100 μl into 96-well clear tissue culture plates. The following day, the cells were treated with PROTACs in a […] concentration curve with 100 nM being the top concentration and serial dilutions to make the other concentrations (30 nM, 10 nM, 3 nM, 1 nM, and 0.3 nM). At all concentrations, 0.01% DMSO is the final concentration in the well. The following day, the plates are aspirated, washed with 50 μl of cold PBS. The cells are lysed with 50 μl/well 4° C. Cell Lysis Buffer (Catalog #9803; Cell Signaling Technology, Danvers, Mass.) (20 mM Tris-HCL (pH 7.5), 150 mM NaCl, 1 mM […], 1 mM EGTA, 1% Triton, 2.5 mM sodium pyrophosphate, 1 mM B-glycerophosphate, 1 mM sodium vanadate, 1 ug/ml leupeptin). Lysates were clarified at 16,000×g for 10 minutes, and 2 μg of protein was subjected to SDS-PAGE analysis and followed by immunoblotting according to standard protocols. The antibodies used were ERα (Cell Signaling Technologies Catalog #8644), and Tubulin (Sigma Catalog #T9026; St. Louis, Mo.). Detection reagents were Clarity Western ECL substrate (Bio-Rad Catalog #170-5060; Hercules, Calif.).
Alternatively, MCF7 cells were grown in DMEM/F12 with 10% fetal bovine serum and seeded at 24,000 cells per well in 500 μl in 24-well clear tissue culture plates. The following day, the cells were treated with PROTACs in a 5-point concentration curve (100 nM, 33 nM, 11 nM, 3.7 nM, and 1.2 nM) in the presence of 0.01% DMSO. After 72 hours, the wells are aspirated and washed with 500 μl of PBS. The cells are lysed with 100 μl/well 4° C. Cell Lysis Buffer (Catalog #9803; Cell Signaling Technology, Danvers, M A) (20 mM Tris-HCL (pH 7.5), 150 mM NaCl, 1 mM Na2EDTA, 1 mM EGTA, 1% Triton, 2.5 mM sodium pyrophosphate, 1 mM B-glycerophosphate, 1 mM sodium vanadate, 1 ug/ml leupeptin). Lysates were clarified at 16,000×g for 10 minutes, and 2 μg of protein was subjected to SDS-PAGE analysis and followed by immunoblotting according to standard protocols. The antibodies used were ER(X (Cell Signaling Technologies Catalog #8644), and Tubulin (Sigma Catalog #T9026; St. Louis, Mo.). Detection reagents were Clarity Western ECL substrate (Bio-Rad Catalog #170-5060; Hercules, Calif.).

ERα [2] = biological target: T1, ERα; experiment: ERE luciferase reporter gene assay in T47D-KBluc cells (target engagement); format: cell-based; set-up: T47D human breast cancer cells stably transfected with estrogen responsive element/promoter/luciferase reporter gene; host or cells: T47D-KBluc cells; details: 10% FBS, 24 hours, Table 2 VHL centric PROTACs, read-out: IC50
In short: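 T47D-KBluc breast cancer cells, which carry a stable ERE-luciferase reporter, were grown in RPMI with 10% FBS (about 10 pM estrogen) and exposed to PROTACs for 24 h. The 12-point, 3-fold series ran from 300 nM to 2 pM. Luciferase was read after lysis, and IC50 was fitted from duplicates.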

| DC50 (ERα [1]) [nM] | Dmax (ERα [1]) [%] | IC50 (ERα [2]) [nM] | Structure (SMILES) |
| --- | --- | --- | --- |
| 10 to 100 | > 75 | 17 | C[C@H](NC(=O)[C@@H]1C[C@@H](O)CN1C(=O)[C@@H](NC(=O)Cc1ccc(-c2ccn(CCOc3ccc(Oc4c(-c5ccc(F)cc5)sc5cc(O)ccc45)cc3)n2)cc1)C(C)(C)C)c1ccc(Cl)cc1 [Compound 150, (2S,4R)-N-[(1S)-1-(4-chlorophenyl)ethyl]-1-[(2S)-2-[2-(4-[1-[2-[4-[[2(4-fluorophenyl)-6-hydroxy-1-benzothiophen-3-yl]oxy]phenoxy)ethyl]-1H-pyrazol-3-yl]phenyl)acetamido]-3,3-dimethylbutanoyl]-4-hydroxypyrrolidine-2-carboxamide] |
| 1 to 10 | > 75 | 3.2 | Cc1ncsc1-c1ccc([C@H](C)NC(=O)[C@@H]2C[C@@H](O)CN2C(=O)[C@@H](NC(=O)COCCN2CCN(CCOc3ccc(Oc4c(-c5ccc(Br)cc5)sc5cc(O)ccc45)cc3)CC2)C(C)(C)C)cc1 [Compound 153, (2S,4R)-1-[(2S)-2-[2-(2-[4-[2-(4-[[2-(4-bromophenyl)-6-hydroxy-1-benzothiophen-3-yl]oxy]phenoxy)ethyl]piperazin-1-yl]ethoxy)acetamido]-3,3-dimethylbutanoyl]-4-hydroxy-N-[(1S)-1-[4-(4-methyl-1,3-thiazol-5-yl)phenyl]ethyl]pyrrolidine-2-carboxamide] |
| 1 to 10 | > 75 | 3.5 | Cc1ncsc1-c1ccc(CNC(=O)[C@@H]2C[C@@H](O)CN2C(=O)[C@@H](NC(=O)CCc2cccc(-c3ccn(CCOc4ccc(Oc5c(-c6ccc(F)cc6)sc6cc(O)ccc56)cc4)n3)c2)C(C)(C)C)cc1 [Compound 130, (2S,4R)-1-[(2S)-2-[3-(3-[1-[2-(4-[[2-(4-fluorophenyl)-6-hydroxy-1-benzothiophen-3-yl]oxy]phenoxy)ethyl]-1H-pyrazol-3-yl]phenyl)propanamido]-3,3-dimethylbutanoyl]-4-hydroxy-N-[[4-(4-methyl-1,3-thiazol-5-yl)phenyl]methyl]pyrrolidine-2-carboxamide] |
| 1 to 10 | > 75 | 1 | C[C@H](NC(=O)[C@@H]1C[C@@H](O)CN1C(=O)[C@@H](NC(=O)COCCOCCN1CCC(c2ccc(Oc3c(-c4ccc(F)cc4)sc4cc(O)ccc34)cc2)CC1)C(C)(C)C)c1ccc(C#N)cc1 [Compound 147, (2S,4R)—N-[(1S)-1-(4-cyanophenyl)ethyl]-1-[(2S)-2-[2-(2-[2-[4-(4-[[2-(4-fluorophenyl)-6-hydroxy-1-benzothiophen-3-yl]oxy]phenyl)piperidin-1-yl]ethoxy]ethoxy)acetamido]-3,3-dimethylbutanoyl]-4-hydroxypyrrolidine-2-carboxamide] |
| 1 to 10 | > 75 | 2.6 | Cc1ncsc1-c1ccc(CNC(=O)[C@@H]2C[C@@H](O)CN2C(=O)[C@@H](NC(=O)COCCOCCn2ccc(-c3ccc(Oc4c(-c5ccc(F)cc5)sc5cc(O)ccc45)cc3)cc2=O)C(C)(C)C)cc1 [Compound 134] |
| < 1 | > 75 | 0.6 | Cc1ncsc1-c1ccc([C@H](C)NC(=O)[C@@H]2C[C@@H](O)CN2C(=O)[C@@H](NC(=O)COCCOCCOCCOc2ccc(Oc3c(-c4ccc(F)cc4)sc4cc(O)ccc34)cc2)C(C)(C)C)cc1 [Compound 111, (2S,4R)-1-((S)-2-tert-butyl-14-(4-(2-(4-fluorophenyl)-6-hydroxybenzo[b]thiophen-3-yloxy)phenoxy)-4-oxo-6,9,12-trioxa-3-azatetradecane)-4-hydroxy-N—((S)-1-(4-(4-methylthiazol-5-yl)phenyl)ethyl)pyrrolidine-2-carboxamide] |
